The values that follow come from patent US20030148462A1, “Dual inhibition of sister chromatid separation at metaphase” (President and fellows of Harvard College, priority 2001, published 2003).

One data set addresses T1, separase Ser1126 (Homo sapiens, UniProt Q14674).
T1 construct: Full-length human separase was PCR-amplified from a human fetal thymus cDNA library; made in house; host or cells: 293T cells (cotransfected, unsynchronized)
Briefly: Ser1126-specific in vitro kinase assays with LC-MS/MS. The data set is classed as biochemical. The note with it: securin/separase from unsynchronized 293T cells, 1 mM ATP. The source says: (A) depicts FACS and Western analyses of synchronized HeLaS3 cells undergoing mitosis. (B) depicts quantification of cell cycle distribution and phosphorylation status of separase at Ser1126 for the samples shown in (A). (C) depicts a nano-scale microcapillary LC-MS/MS analysis of native separase phosphorylation state. Shown are the selected reaction, extracted-ion chromatograms corresponding to the unphosphorylated (upper trace) and phosphorylated (bottom trace) Glu1115-Lys1130 native tryptic peptide (blue and green) and heavy internal standard (brown and red). Inset: Averaged selected reaction m/z window corresponding to the y10-ion fragment of light and heavy peptides. (D) depicts […] in vitro kinase assays. Shown is the phosphorylation status of Ser1126 in percent as determined by incubation of affinity-purified securin/separase with various pure kinases in the presence of ATP (1 mM) followed by LC-MS/MS analysis. […] Top panel: Mock treatment.
For kinase assays, the securin/separase complex was isolated from unsynchronized, transfected cells and eluted with TEV protease without prior incubation in Xenopus extracts. […] Reactions with polo and auroraA (a gift from E. A. Nigg) were carried out as described (Bischoff et al. (1998) EMBO J 17:3052; Descombes et al. (1998) EMBO J 17:1328). All kinase assays were done in the presence of 1 mM ATP.
As a substrate, overexpressed securin/separase purified from transfected, unsynchronized 293T cells was used.
Coomassie stained securin and separase bands were digested in-gel (Shevchenko et al. (1996) Anal. Chem. 68:850). Extracted peptides were separated by nano-scale microcapillary high performance liquid chromatography (HPLC) as described (Gygi et al. (1999) Mol. Cell Biol. 19:1720). Eluting peptides were ionized by electrospray ionization and analyzed by an LCQ-DECA ion trap mass spectrometer (ThermoFinnigan). Peptide ions reaching a certain threshold were automatically selected for sequence analysis by tandem mass spectrometry. Peptide sequence was determined by data-searching against the non redundant human protein database using the Sequest algorithm (Eng et al. (1994) J. Am. Soc. Mass Spectrom. 5:1579).

For the next data set, the system named is separase. Briefly: Re-inhibition of pre-activated separase by recombinant securin (cohesin hSCC1 cleavage). In kind it is biochemical, human. The note with it: equal amounts of separase. As for the experimental part: FIGS. 7A-7C depict the independent inhibition of separase activity by phosphorylation of separase and by binding of securin. (A) depicts a Western blot (upper panel) and cohesin^hSCC1 cleavage activity using isolated chromosomes as substrate (lower panel). Lane 2: Consecutive treatment of separase with high-Δ90 extract twice. (B) depicts separase that had been pre-activated in low-Δ90 extract that was eluted and incubated with recombinant securin (lanes 2 and 3) or reference buffer (lane 1) for one hour on ice. Subsequently, its cleavage activity towards in vitro translated ^35S-cohesin^hSCC1 was tested (upper panel). The separase concentration in each reaction was 4 nM, as estimated by Coomassie staining. To compare wild type separase with PM-2/4 mutant separase in its ability to bind securin the same experiment was repeated with PM-2/4 (lower panel). Roughly equal separase concentrations in both cases were assured by comparative immunoblotting (see FIG. 4B, lanes 15 and 17). (C) depicts a model for the dual inhibition of separase in metaphase and its activation at anaphase onset. PPase denotes an unknown protein phosphatase that is proposed to act on phosphorylated separase.
To determine whether securin can inhibit separase independent of the phosphorylation state of separase, and whether separase that has already been activated and has therefore cleaved itself be re-inhibited by either of the two inhibitory mechanisms, active separase was generated by treating a securin/separase complex with a low-Δ90 extract (L; FIG. 7) to degrade securin and dephosphorylate separase. […] Active separase on beads was then incubated with either recombinant securin or a high-Δ90 extract and assayed for its ability to cleave cohesin^hSCC1. […]

Data set [1] deals with human metaphase chromosomes. Briefly: Sister chromatid separation of human metaphase chromosomes in Xenopus extracts. Conditions: for Separation of sister chromatids: high concentrations of Δ90 (400 nm), human chromosomes in Xenopus extract. As for the experimental part: CSF extracts were prepared as described (Murray (1991) Methods Cell Biol. 36:581). For sister chromatid separation assays two sources of chromosomes were used, Xenopus sperm nuclei and isolated human metaphase chromosomes. Xenopus sperm nuclei were prepared as described by Philpott et al. ((1991) Cell 65:569). When they were used, the protocol developed by Murray and colleagues was followed (Holloway et al. (1993) Cell 73:1393) with the exception that Δ90 was usually added later, about 50 minutes after CSF. Re-isolation of Xenopus chromosomes was done according to Funabiki and Murray ((2000) Cell 102:411). When human chromosomes were used, the KCl concentration was lowered to 70 mM. Δ90 and isolated securin/separase (0.1 volumes) were added 20 minutes after addition of human chromosomes. After additional 20 minutes at 20° C., Ca^2+ (0.6 mM) was added. Chromosomes were re-isolated from extracts 50 minutes thereafter. Analysis by immunofluorescence microscopy was performed as described (Wood et al. (1997) Cell 91:357). The percentage of separated chromosomes was calculated according to the following equation: % separation=(number of single chromatids/2)/[(number of single chromatids/2)+number of unseparated chromosomes].
It was next determined whether the PM-2 mutant would override the inhibition not only of cohesin cleavage but also of sister chromatid separation in high-Δ90 extracts. Since the biochemical experiments utilized human separase, the existing assay was modified to examine the separation of human metaphase chromosomes in Xenopus extracts. […] In the presence of wild type separase (supplied as purified securin/separase complexes) and high concentrations of Δ90 (400 nm), only 2.7% of the chromosomes separated (FIG. 5A, row 2). […] In contrast, PM-2 (Ser 1126) led to maximal separation of sister chromatids (68%) under the same conditions (FIG. 5A, row 5). Similar results were obtained with PM-2/4 and PM-2^Asp; they caused 68% and 66% separation, respectively (FIG. 5A, rows 4 and 7). A Western blot for separase was performed to assure that similar amounts of the various separases had been used in the experiment (FIG. 5B).

For a further data set, the system named is cohesin^hSCC1. Briefly: In vitro separase activity assay (self-cleavage and cohesin hSCC1 cleavage) after low- or high-Δ90 extract. In kind it is biochemical, human. Conditions: for Separase self-cleavage and cohesin hSCC1 cleavage after low- versus high-Δ90 extract: low or high CDC2 activity extract. The source says:
To address whether high CDC2 activity blocked the activity of separase, an in vitro separase activity assay was developed. Plasmids coding for human securin and tagged human separase were transfected into 293T cells as follows.
Human cohesin^hSCC1 was isolated from the a human fetal thymus cDNA library using the following primers: 5′-[…]-3′ (SEQ ID NO:8) and 5′-[…]-3′ (SEQ ID NO:9). Both separase and securin were subcloned into the multi-purpose expression vector pCS2 (various versions). The resulting plasmids were utilized for transfection into 293T cells and for in vitro expression in TNT™ reticulocyte lysate (Promega). For immunoprecipitation of separase, two types of N-terminal tags were fused to the amino terminus of separase, three HA tags (FIG. 2A) or two IgG binding domains of protein A followed by four TEV-protease cleavage sequences (ZZ-TEV4-tag; FIGS. 2B, 4B, 5, 6B to E, and 7). Both versions of separase gave essentially the same results. Site directed mutagenesis was performed using either the QuickChange kit (Stratagene) or the GeneEditor system (Promega). All mutations were confirmed by DNA sequencing of manipulated regions.
To obtain securin/separase complexes, 293T cells were cotransfected with separase and securin expression plasmids using a calcium phosphate based method and subsequently synchronized as described (Fang et al. (1998) Mol. Cell 2:163). Two days after transfection, the nocodazole-arrested cells were lysed in 20 mM Tris/HCl pH 7.7, 100 mM NaCl, 1 mM NaF, 20 mM β-glycerophosphate, 5 mM MgCl2, 0.1% Triton X100, 1 μM microcystin-LR. After ultra-centrifugation at 100,000 g, the supernatant was mixed with anti-HA agarose (3F10, Roche) or IgG-sepharose (Amersham), depending on the tag of separase. For a 10 cm dish of confluent, transfected cells (corresponding to roughly 100 μl cell pellet), 20 μl of beads were used. After rotation overnight at 4° C. the beads were washed twice with CSF-XB (Murray (1991) Methods Cell Biol. 36:581) and then incubated with various Xenopus egg extracts. To prepare low- or high-Δ90 extracts, CSF extracts were supplemented with various concentrations of Δ90. Fifteen minutes thereafter, Ca^2+ was added (0.6 mM) and the extracts were further incubated for 15 minutes before adding them to the securin/separase beads. After 1 hour, the beads were washed twice with CSF-XB, once with 30 mM Hepes/KOH pH 7.7, 30% glycerol, 25 mM NaF, 25 mM KCl, 5 mM MgCl2, 1.5 mM ATP, 1 mM EGTA, and eluted with HA peptide (1 mg/ml) or TEV-protease (2 mg/ml) in 20 to 50 μl. Two μl of separase were combined with 2 μl of in vitro translated ^35S-cohesin^hSCC1 and incubated for 1 hour at 37° C. Alternatively, 2 μl of isolated metaphase chromosomes (8.7 μg DNA per μl) were used as a substrate.
Each mutant was incubated in either low- (odd numbered lanes) or high-Δ90 extract (even numbered lanes) before analyzing separase self-cleavage by immuno-blot (top panels) and cohesin^hSCC1 cleavage by autoradiography (middle and lower panels).

The test system of the next data set is T2, recombinant securin.
T2 sequence (O95997 2-202, species assumed, looked up): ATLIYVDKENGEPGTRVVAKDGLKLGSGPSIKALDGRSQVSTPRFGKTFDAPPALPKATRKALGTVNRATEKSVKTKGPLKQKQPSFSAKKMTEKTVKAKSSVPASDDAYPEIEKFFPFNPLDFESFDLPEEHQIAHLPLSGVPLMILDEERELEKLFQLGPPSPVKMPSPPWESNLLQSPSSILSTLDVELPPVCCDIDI

T1 sequence (Q14674 whole entry): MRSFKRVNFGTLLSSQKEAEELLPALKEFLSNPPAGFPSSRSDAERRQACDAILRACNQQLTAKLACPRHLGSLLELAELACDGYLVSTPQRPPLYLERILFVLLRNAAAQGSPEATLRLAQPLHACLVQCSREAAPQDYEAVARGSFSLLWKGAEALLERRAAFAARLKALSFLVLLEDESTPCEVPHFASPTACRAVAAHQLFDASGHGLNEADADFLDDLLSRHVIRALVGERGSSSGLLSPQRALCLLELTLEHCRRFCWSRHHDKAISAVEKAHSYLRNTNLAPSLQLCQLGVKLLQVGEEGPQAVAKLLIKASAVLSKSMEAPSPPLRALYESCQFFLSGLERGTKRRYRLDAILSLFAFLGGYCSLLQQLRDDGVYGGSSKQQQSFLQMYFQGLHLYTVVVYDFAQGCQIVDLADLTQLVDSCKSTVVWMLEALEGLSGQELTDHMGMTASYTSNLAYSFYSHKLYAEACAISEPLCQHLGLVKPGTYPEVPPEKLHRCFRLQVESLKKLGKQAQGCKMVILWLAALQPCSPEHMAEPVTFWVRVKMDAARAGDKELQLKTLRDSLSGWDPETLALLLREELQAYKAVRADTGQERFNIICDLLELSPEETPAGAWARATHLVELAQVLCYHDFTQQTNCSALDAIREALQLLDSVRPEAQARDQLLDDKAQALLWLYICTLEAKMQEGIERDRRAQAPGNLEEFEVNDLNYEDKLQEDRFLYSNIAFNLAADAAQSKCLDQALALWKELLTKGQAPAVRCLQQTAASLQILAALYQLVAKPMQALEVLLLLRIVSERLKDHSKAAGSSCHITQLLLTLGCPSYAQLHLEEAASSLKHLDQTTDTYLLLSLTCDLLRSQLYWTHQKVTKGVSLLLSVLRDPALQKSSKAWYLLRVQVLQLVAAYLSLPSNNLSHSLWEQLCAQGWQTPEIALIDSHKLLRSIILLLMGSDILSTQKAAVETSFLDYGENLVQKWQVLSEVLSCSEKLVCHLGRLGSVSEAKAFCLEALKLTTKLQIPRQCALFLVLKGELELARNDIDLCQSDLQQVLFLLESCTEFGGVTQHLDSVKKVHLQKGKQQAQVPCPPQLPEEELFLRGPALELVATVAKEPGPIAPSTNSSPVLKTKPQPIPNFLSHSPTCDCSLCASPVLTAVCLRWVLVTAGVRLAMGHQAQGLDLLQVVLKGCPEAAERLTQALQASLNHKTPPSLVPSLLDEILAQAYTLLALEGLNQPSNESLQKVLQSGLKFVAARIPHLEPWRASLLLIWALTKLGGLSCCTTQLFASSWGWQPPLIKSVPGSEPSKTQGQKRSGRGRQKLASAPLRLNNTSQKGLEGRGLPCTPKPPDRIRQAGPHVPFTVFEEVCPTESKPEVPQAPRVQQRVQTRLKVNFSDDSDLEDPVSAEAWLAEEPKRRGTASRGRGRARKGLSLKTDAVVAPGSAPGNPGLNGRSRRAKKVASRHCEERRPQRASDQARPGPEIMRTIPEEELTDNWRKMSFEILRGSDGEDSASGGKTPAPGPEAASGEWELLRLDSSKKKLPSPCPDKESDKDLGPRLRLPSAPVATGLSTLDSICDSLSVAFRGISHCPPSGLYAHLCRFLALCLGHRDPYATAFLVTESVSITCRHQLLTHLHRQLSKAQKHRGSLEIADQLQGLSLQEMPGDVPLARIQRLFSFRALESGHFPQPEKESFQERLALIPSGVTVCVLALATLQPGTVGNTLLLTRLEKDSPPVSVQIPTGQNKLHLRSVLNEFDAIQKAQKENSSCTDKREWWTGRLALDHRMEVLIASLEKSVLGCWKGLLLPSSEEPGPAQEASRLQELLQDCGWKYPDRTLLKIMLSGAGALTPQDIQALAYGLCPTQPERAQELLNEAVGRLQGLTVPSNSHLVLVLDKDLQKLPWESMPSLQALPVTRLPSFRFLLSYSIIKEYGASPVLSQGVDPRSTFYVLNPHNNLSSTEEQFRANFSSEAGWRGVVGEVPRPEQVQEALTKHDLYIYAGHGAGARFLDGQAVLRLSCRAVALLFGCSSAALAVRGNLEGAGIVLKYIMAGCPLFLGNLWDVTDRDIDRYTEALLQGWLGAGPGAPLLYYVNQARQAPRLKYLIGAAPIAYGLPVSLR
T1 sequence (O95997 whole entry partner): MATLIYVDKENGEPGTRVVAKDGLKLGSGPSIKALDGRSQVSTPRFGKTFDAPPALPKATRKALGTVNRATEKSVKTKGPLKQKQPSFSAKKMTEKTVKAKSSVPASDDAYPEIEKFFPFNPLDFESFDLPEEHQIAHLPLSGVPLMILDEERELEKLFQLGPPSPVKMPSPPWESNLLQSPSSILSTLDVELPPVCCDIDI

With “CaMKII: calmodulin-dependent kinase II, from New England Biolabs”, the “Phosphorylation of Ser1126 by kinase” value with separase Ser1126 is reported as “not at all”.
The same measure, in the same setting: as for “MAPK (ERK2): pure kinase from New England Biolabs”, the entry is “efficiently phosphorylated”.
In the case of “PM-2/4: separase phospho-mutant, sites 2 (Ser1126) and 4 (Thr1346) changed to alanine”, the “Inhibition of separase by securin, wild type versus mutant” value in the data set with separase is “inhibited at the same concentration of securin”. For the same substance, the “Separation of sister chromatids” value in data set [1] came out at 68%. Also, in data set [1] (low-Δ90 extract plus saturating level of PM-2/4, data not shown), the “Maximal degree of sister chromatid separation” value is given as “about 70%”. Moreover, the “Separase self-cleavage and cohesin hSCC1 cleavage after low- versus high-Δ90 extract” value in the data set with cohesin^hSCC1 is recorded as “no longer inhibited”. The “Separase activity relative to wild type after low-Δ90 extract” value with cohesin^hSCC1 (low-Δ90 extract) was “higher than that of wild type separase”.
For “PM-2: single site separase phospho-mutant, site 2 (Ser1126) changed to alanine”, the “Separation of sister chromatids” value in data set [1] turned out to be 68%. Further, in the data set on cohesin^hSCC1, the “Separase self-cleavage and cohesin hSCC1 cleavage after low- versus high-Δ90 extract” value was “still largely resistant to inhibition”. In addition, in the data set with cohesin^hSCC1 (low-Δ90 extract), the “Separase activity relative to wild type after low-Δ90 extract” value is given as “higher than that of wild type separase”.
“PM-2^Asp: separase with mutation of Ser1126 to aspartate”: in data set [1], the “Separation of sister chromatids” value is listed as 66%. In addition, in the data set with cohesin^hSCC1, the “Separase self-cleavage and cohesin hSCC1 cleavage after low- versus high-Δ90 extract” value is recorded as “still largely resistant to inactivation”.
For “PM-4: single site separase phospho-mutant, site 4 (Thr1346) changed to alanine”, in data set [1], the “Separation of sister chromatids” value was determined as 38%. Also, the “Separase self-cleavage and cohesin hSCC1 cleavage after low- versus high-Δ90 extract” value with cohesin^hSCC1 is reported as “inactivated by high CDC2 activity albeit less so than wild type separase”. In the data set on cohesin^hSCC1 (low-Δ90 extract), the “Separase activity relative to wild type after low-Δ90 extract” value was “higher than that of wild type separase”.
Consider “auroraA: pure kinase, a gift from E. A. Nigg”, for which the “Phosphorylation of Ser1126 by kinase” value with separase Ser1126 is reported as “not at all”.
Regarding “catalytically inactive separase: mutant separase in which the catalytic cysteine residue was replaced by a serine”, in data set [1], the “Separation of sister chromatids” value turned out to be 0.4%. In addition, in the data set on cohesin^hSCC1 (low-Δ90 extract), the Separase self-cleavage entry is on record as “not cleaved”.
For “human separase phospho-mutant PM-2/4 (Ser1126 and Thr1346 changed to alanine), with N-terminal ZZ-TEV4-tag”, the “cohesin^hSCC1 cleavage by pre-activated separase” value with recombinant securin was “both were inhibited at the same concentration of securin”.
For the substance “polo: pure kinase, a gift from E. A. Nigg”, in the data set with separase Ser1126, the “Phosphorylation of Ser1126 by kinase” value was “not at all”.
Turning to “wild type separase: human separase protein (SEQ ID NO:3), tagged, purified as securin/separase complex from 293T cells”, in the data set on separase, the “Inhibition of separase by securin, wild type versus mutant” value was “inhibited at the same concentration of securin”. For the same substance, in data set [1], the “Separation of sister chromatids” value was 2.7%. Moreover, the “Separase self-cleavage and cohesin hSCC1 cleavage after low- versus high-Δ90 extract” value with cohesin^hSCC1 is listed as “efficiently at low but not at high CDC2 activity”.
